Patent US20110112099A1, “THERAPEUTIC AGENT FOR CANCER RESISTANT TO PROTEASE INHIBITOR” (KYOWA HAKKO KIRIN CO., LTD., priority 2007, published 2011)
Read-outs that look alike come from different tables or passages of the source. Where a SMILES comes first, the peptide text is derived from it. The star is where a group is joined. Cbz = O=C(OCc1ccccc1)*

Assays:
[1] = test system: KMS-11/Bor (bortezomib-resistant KMS-11 cells); assay: Test for the growth inhibition to KMS-11/Bor (WST-1, 72 hours); assay type: cell-based, human; conditions: for IC50: KMS-11/Bor cells, 72 hours, WST-1, read-out: IC50 KMS-11/Bor (growth-inhibitory effect, viable cell number); for IC50 ratio (IC50 of KMS-11/Bor divided by IC50 of KMS-11): degree of bortezomib resistance, KMS-11/Bor vs KMS-11
Procedure: KMS-11 cells were suspended in an RPMI1640 medium containing 10% fetal calf serum (FCS) at a concentration of 5×10^4 cells/mL, and incubated at 37° C. in a 5% carbon dioxide incubator. Then, bortezomib was added thereto to adjust the final concentration of 5 nmol/L, and the incubation was continued. After confirmation of the survival and satisfactory growth of the cells, the cells were suspended at a concentration of 5×10^4 cells/mL, then bortezomib was added at a concentration of 10 nmol/L, and the incubation was continued. Then, after confirmation of the survival and satisfactory growth of the cells, the concentration of bortezomib was increased step by step, and the culture and subculture were repeated to create the bortezomib-resistant KMS-11 cells being capable of growing at a concentration of 100 nmol/L of bortezomib. Hereinafter, thus prepared cell line was referred to as “KMS-11/Bor”.
(§1) A cell solution (90 μL/well) of KMS-11 or KMS-11/Bor suspended in an RPMI1640 medium containing 10% FCS (hereinafter referred to as culture medium) at a concentration of 5×10^4 cells/mL was inoculated in a 96-well microplate (Nunc), and as for a blank the culture medium (100 μL/well each) was added, and the plate was incubated in a 5% carbon dioxide incubator for 5 hours.
(§2) The test compound was serially diluted to yield a diluted solution having a concentration of 10-fold of the final concentration, and the solution (10 μL/well each) was added (n=3 for one concentration). As for a control, the culture medium containing no test compound (10 μL/well each) was added. The tests for the control and the blank were performed in n=8. The incubation was carried out for 72 hours after addition of the test compound, and the number of viable cells was counted with a cell proliferation reagent WST-1 (WST-1 reagent; Roche Diagnostics). The WST-1 reagent (10 μL/well) was added to each plate. The plate was incubated in a carbon dioxide incubator for 2 hours, then stirred on a plate mixer, and the absorbance was measured at 450 nm and 655 nm using a microplate spectrophotometer (Molecular Device; SPECTRAmax 340PC-384). For each well, the differential absorbance was calculated by subtracting the absorbance at 655 nm from that at 450 nm. Further, the absorbance corresponding to the viable cell number was calculated by subtracting the differential absorbance of the blank from the above differential absorbance.
(§3) The followings describe the calculation method for IC50. The absorbance corresponding to the viable cell number obtained in the wells untreated with the test compound was regarded as 100%, and the absorbance obtained in the wells treated with the test compound was represented by the relative value (% control). From these values, the IC50 of viable cell number (the concentration at which the viable cell number is reduced to 50% of the control) was calculated. FIGS. 1 to 4 show the % control at the respective concentration of the test compound after treatment with the test compound. […] In addition, values in which IC50 of KMS-11/Bor is divided by IC50 of KMS-11 (IC50 ratio) is shown in Table 3 as the degree of bortezomib resistance in the respective test compounds.

[2] = test system: OPM-2 cells; assay: Test for the growth inhibition to OPM-2 (WST-1, 72 hours); assay type: cell-based, human; conditions: read-out: IC50 OPM-2 (growth-inhibitory effect, viable cell number)
Procedure: as §1, with “OPM-2” for “KMS-11”, “OPM-2/Bor” for “KMS-11/Bor”
as §2, with “concentration” for “concentration,”
(§4) The followings describe the calculation method for IC50. The absorbance corresponding to the viable cell number obtained in the wells untreated with the test compound was regarded as 100%, and the absorbance obtained in the wells treated with the test compound was represented by the relative value (% control). From these values, the IC50 of viable cell number (the concentration at which the viable cell number is reduced to 50% of the control) was calculated. FIGS. 5 to 8 show the % control at the respective concentration of the test compound after treatment with the test compound. […]

[3] = test system: OPM-2/Bor (bortezomib-resistant OPM-2 cells); assay: Test for the growth inhibition to OPM-2/Bor (WST-1, 72 hours); assay type: cell-based, human; conditions: for IC50: OPM-2/Bor cells, 72 hours, WST-1, read-out: IC50 OPM/Bor (growth-inhibitory effect, viable cell number); for IC50 ratio (IC50 of OPM-2/Bor divided by IC50 of OPM-2): degree of bortezomib resistance, OPM-2/Bor vs OPM-2
Procedure: OPM-2 cells were suspended in an RPMI1640 medium containing 10% fetal calf serum (FCS) at a concentration of 5×10^4 cells/mL, and incubated at 37° C. in a 5% carbon dioxide incubator. Then, bortezomib was added thereto to adjust the final concentration of 2.5 nmol/L, and the incubation was continued. After confirmation of the survival and satisfactory growth of the cells, bortezomib was added at a concentration of 3.75 nmol/L, and the incubation was continued. Then, after confirmation of the survival and satisfactory growth of the cells, the concentration of bortezomib was increased step by step, and the culture and subculture were repeated to create the bortezomib-resistant OPM-2 cells being capable of growing at a concentration of 15 nmol/L of bortezomib. Hereinafter, thus prepared cell line was referred to as “OPM-2/Bor”.
as §1, with “OPM-2” for “KMS-11”, “OPM-2/Bor” for “KMS-11/Bor”
as §2, with “concentration” for “concentration,”
as §3, with “FIGS. 5” for “FIGS. 1”, “to 8” for “to 4”, “IC50 ratio for OPM-2/Bor was” for “IC50 of KMS-11/Bor is”, “of OPM-2” for “of KMS-11”, “Table 4” for “Table 3”

[4] = test system: KMS-11 cells; assay: Test for the growth inhibition to KMS-11 (WST-1, 72 hours); assay type: cell-based, human; conditions: read-out: IC50 KMS-11 (growth-inhibitory effect, viable cell number)
Procedure: as §1, §2
as §4, with “FIGS. 1” for “FIGS. 5”, “to 4” for “to 8”

[5] = test system: refractory/recurrent multiple myeloma; conditions: phase I, 17-AAG alone; cited from earlier work
[6] = test system: refractory/recurrent multiple myeloma; conditions: phase I, IPI-504 alone; cited from earlier work
[7] = test system: refractory/recurrent multiple myeloma; conditions: clinical, New England Journal of Medicine 348, 2609; cited from earlier work
[8] = test system: OPM-2/Bor cells; assay: Anti-tumor effect in a mouse model to which the OPM-2/Bor cells have been implanted; assay type: in vivo; conditions: for T/C value (V/V0 of group divided by V/V0 of negative control group): Day 14, OPM-2/Bor implanted scid mice
Procedure: The day before the implantation of cancer cells, an anti-asialo GM1 antibody (0.3 mg/mouse each) was administered intraperitoneally to Fox C. B-17/Icr-scidJcl mice (CLEA Japan, Inc.). The OPM-2/Bor cells were grown by incubation in an RPMI1640 medium containing 10% FCS at 37° C. in a 5% carbon dioxide incubator, and implanted into the ventral subcutaneous portion at a dose of 1×10^7 cells/mouse. Eighteen days after implantation, the major axis and minor axis of the tumor growing in the subcutaneous portion were measured with a vernier micrometer, and the tumor volume was calculated according to the following equation.
At the same time, the body weight of each mouse was measured, and the mice were divided into the following administration groups consisting of 5 mice per group so that the average tumor volume and the average body weight became uniform; and this day was regarded as the test-starting day 0, on which the administration was started.
Compound 22 was dissolved in physiological saline (Otsuka Pharmaceutical Co., Ltd.) at a concentration of 10 or 5 mg/mL, and administered intravenously in the tail vein at a dose of 0.01 mL/g body weight of mouse, respectively, (corresponding to 100 mg/kg and 50 mg/kg) twice a day continuously up to the 4th day from the starting day 0.
Bortezomib was dissolved in physiological saline at a concentration of 0.1 or 0.05 mg/mL, and administered intravenously in the tail vein at a dose of 0.01 mL/g body weight of mouse, respectively, (corresponding to […] and 0.5 mg/kg) once a day on the starting day 0, […].
A. Negative control group (Control): No administration of the test compound B. Bortezomib administered group: 1 mg/kg (administered once a day on the days 0, 3, 7, and 10) C. […]
Following the day 0, the tumor volume was measured twice a week. The anti-tumor effect was determined by calculating the average value of the tumor volume in each group and comparing a change of the tumor volume (V/V0), wherein the tumor volume on the day 0 was defined as V0.

SMILES	IC50 ([1]; Homo sapiens) [nM]	IC50 ratio (IC50 of KMS-11/Bor divided by IC50 of KMS-11) [1]	IC50 ([2]; Homo sapiens) [nM]	IC50 ([3]; Homo sapiens) [nM]	IC50 ratio (IC50 of OPM-2/Bor divided by IC50 of OPM-2) [3]	IC50 ([4]; Homo sapiens) [nM]	IC50 [1] [nM]	Patients with stable disease (SD) or more effect [5]	IC50 [2] [nM]	IC50 [3] [nM]	IC50 [4] [nM]	Cases with SD as anti-tumor effect [6]	Share of refractory/recurrent multiple myeloma in which the drug is effective [7]	Share of refractory/recurrent multiple myeloma in which the drug is ineffective [7]	T/C value (V/V0 of group divided by V/V0 of negative control group) ([8]; B group: 1 mg/kg intravenously once a day on days 0, 3, 7, 10)	T/C value (V/V0 of group divided by V/V0 of negative control group) ([8]; C group: 0.5 mg/kg intravenously once a day on days 0, 3, 7, 10)	Anti-tumor effect, change of tumor volume (V/V0), FIG. 9 ([8]; OPM-2/Bor implanted mice, Compound 22 100 and 50 mg/kg, bortezomib 1 and 0.5 mg/kg)
CC(C)C[C@@H](C=O)NC(=O)[C@H](CC(C)C)NC(=O)[C@H](CC(C)C)NC(=O)OCc1ccccc1 [MG-132] (Cbz-Leu-Leu-Leu-aldehyde)	2000	7.7	94	1500	16	260	–	–	–	–	–	–	–	–	–	–	–
C=CCNC1=C2C[C@@H](C)C[C@H](OC)[C@H](O)[C@@H](C)/C=C(\C)[C@H](OC(N)=O)[C@@H](OC)/C=C\C=C(/C)C(=O)NC(=CC1=O)C2=O [Compound 17-AAG, 17-allylamino-17-demethoxygeldanamycin]	–	0.76	–	–	1.1	–	62	9 out of the 22	310	350	82	–	–	–	–	–	–
C=CCNc1c(O)cc2c(O)c1C[C@@H](C)C[C@H](OC)[C@H](O)[C@@H](C)/C=C(\C)[C@H](OC(N)=O)[C@@H](OC)/C=C\C=C(/C)C(=O)N2 [IPI-504]	–	–	–	–	–	–	–	–	–	–	–	3 out of the 17	–	–	–	–	–
CC(C)C[C@H](NC(=O)[C@H](Cc1ccccc1)NC(=O)c1cnccn1)B(O)O [Bortezomib, bortezomib]	170	21	3.9	110	28	8.2	–	–	–	–	–	–	approximately 35%	approximately 40%	0.85	1.0	did not show a remarkable growth inhibitory effect
